# Literature values, collected in paper PMC4791286, “Puquitinib mesylate, an inhibitor of phosphatidylinositol 3-kinase p110δ, for treating relapsed or refractory non-Hodgkin's lymphoma” (Oncotarget, 2015).
# Test system: advanced solid tumors
# Conditions: human, in vivo; cited from earlier work
structure (smiles),measurement,value
C=CCN(/C=C1/C(=O)O[C@H](COC)[C@@]2(C)C1=C(O)C(=O)C1=C2[C@H](OC(C)=O)C[C@]2(C)C(=O)CC[C@@H]12)CC=C [PX866],Grade 3 AST abnormalities,2 of 84 patients
